The target in assay [1] is T1, Human OX1 receptor (Homo sapiens, UniProt O43613).
T1 sequence (O43613 1-425): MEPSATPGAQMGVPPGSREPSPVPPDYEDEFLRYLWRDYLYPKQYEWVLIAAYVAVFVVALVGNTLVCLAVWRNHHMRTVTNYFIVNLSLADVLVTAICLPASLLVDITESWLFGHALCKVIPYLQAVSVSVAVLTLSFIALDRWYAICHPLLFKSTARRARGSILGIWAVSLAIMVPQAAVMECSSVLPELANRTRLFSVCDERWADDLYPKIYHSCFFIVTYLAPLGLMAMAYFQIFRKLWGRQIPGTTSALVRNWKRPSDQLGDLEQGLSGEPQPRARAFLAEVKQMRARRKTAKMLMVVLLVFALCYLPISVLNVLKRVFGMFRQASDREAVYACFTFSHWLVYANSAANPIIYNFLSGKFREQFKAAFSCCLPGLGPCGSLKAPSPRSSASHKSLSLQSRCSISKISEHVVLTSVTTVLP
Description: IPone accumulation assay, CHO cells expressing human OX1 receptor. The format is cell-based. The conditions noted are these: antagonism of orexin A (EC80) induced inositol phosphate turnover, read-out: fpKb average OX1 (converted). The protocol: (§1) Stable cell lines for the human OX1R and OX2R receptors were generated through the transfection of CHO cells using the transfection reagent Genejuice (Novagen number 70967) and cDNA coding for either the human OX1R or OX2R. Cells were cultured in Sigma Nutrient Mixture F-12 Ham media (catalog number N6658) supplemented with 10% heat-inactivated FBS. Forty-eight hours after transfection, cells were harvested and placed under geneticin selection by culturing in Sigma Nutrient Mixture F-12 Ham media supplemented with 10% heat-inactivated FBS and geneticin (ThermoFisher Catalog number: 10131035). Selection of the final stable clone for each receptor was made on the basis of receptor expression, assay signal to noise and robustness though increasing passage. Selected clones for the human OX1R and OX2R were then frozen down into liquid nitrogen using Cell Freezing Medium-DMSO (Sigma-Aldrich catalog number: C6164).
(§2) IPone accumulation assay. A CHO cell line stably expressing either human OX1 or OX2 receptor was used with the IPone HTRF assay kit (CisBio: Part #62IPAPEJ) to measure receptor activation. The assay was optimised to measure the ability (potency; fpKb) of antagonists to reduce agonist (orexin A)-induced inositol phosphate turnover. Briefly, cells were plated onto half area 96-well white walled plates at a density of 12,500 cells/well. Sixteen hours post-plating cell growth media was replaced with antagonist concentration-response curve diluted in stimulation buffer (supplied with the kit). Cells were incubated in a humidified incubator (37° C.) for 30 min before an EC80 challenge concentration (˜20 nM (OX1) and 40 nM (OX2)) of orexin A (Tocris catalogue number 1455). After 30 min stimulation in a humidified incubator (37° C.) the assay was terminated by the addition of detection mixture as per manufacturer's instructions. The concentration of compound which reduced orexin-A stimulated turnover of inositol phosphates by 50% (IC50) was calculated by fitting to a four parameter sigmoidal dose response curve. The IC50 values were converted to fpKB values using the orexin A pEC50 value estimated on each plate as well as the challenge concentration interpolated from the orexin A control curve.

In assay [2] the target is T2, Human OX2 receptor (Homo sapiens, UniProt O43614).
T2 sequence (O43614 1-444): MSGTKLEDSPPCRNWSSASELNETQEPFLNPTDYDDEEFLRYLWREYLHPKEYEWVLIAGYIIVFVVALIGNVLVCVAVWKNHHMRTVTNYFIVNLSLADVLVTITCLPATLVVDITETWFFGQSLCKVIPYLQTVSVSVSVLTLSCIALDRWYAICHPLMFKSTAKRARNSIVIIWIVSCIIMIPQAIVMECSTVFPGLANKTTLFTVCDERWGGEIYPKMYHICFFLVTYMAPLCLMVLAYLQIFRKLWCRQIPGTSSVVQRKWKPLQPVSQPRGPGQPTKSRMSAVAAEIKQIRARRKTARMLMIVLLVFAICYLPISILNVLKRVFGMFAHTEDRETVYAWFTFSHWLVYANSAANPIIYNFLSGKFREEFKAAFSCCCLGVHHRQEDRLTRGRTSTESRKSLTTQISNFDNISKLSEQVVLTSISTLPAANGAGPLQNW
Description: IPone accumulation assay, CHO cells expressing human OX2 receptor. The conditions noted are these: antagonism of orexin A (EC80) induced inositol phosphate turnover, read-out: fpKb average OX2. The format is cell-based. Here is the method: as §1
as §2, with “Cells were incubated in a humidified incubator (37° C.) for 30 min before an EC80 challenge concentration (˜20 nM (OX1) and 40 nM (OX2)) of orexin A (Tocris catalogue number 1455).” left out

Assay [3] has as its target T1, Human OX1 receptor. Description: [3H]-radioligand binding assay, human OX1 receptor membranes.
Description: (§3) Human OX1 or OX2 receptor were cloned into Invitrogen's (ThermoFisher Scientific, UK) Bac-to-Bac Baculovirus Expression System. P0 baculovirus was generated by transfecting SF9 cells with bacmid DNA using Cellfectin® II transfection reagent (ThermoFisher Scientific, UK, Catalog number 10362-100). Following P0 generation P1 virus was then generated ready for large scale infection and membrane preparation. SF21 cells were grown in expression medium ESF921 (Expression Systems, USA, catalog number 96-001-01) supplemented with 10% heat-inactivated FBS and 1% Pen/Strep and were infected at a cell density of 2.5×10^6 cells/mL and a multiplicity of infection of 1.0 for both human OX1R and OX2R. Incubation was carried out at over 48 h in a shaking incubator set at 27° C. The cell culture was then centrifuged at 2,500 rcf for 10 min at 4° C. The pellets were resuspended in cold PBS supplemented with Roche's Complete EDTA-free protease inhibitor cocktail tablets (Roche Applied Sciences, catalog number 05056489001), 1 mM PMSF and 1 mM EDTA. The resuspended cell paste was then centrifuged at 3,273 rcf for 12 min at 4° C. The supernatant was discarded and the pellet frozen at −80° C. The cell pellet from a 4 L culture was resuspended in buffer containing 50 mM HEPES pH 7.5, 150 mM NaCl, 8 Roche EDTA-Free protease inhibitor cocktail tablets and 1 mM PMSF. The suspension was left stirring at rt for 1 h and then homogenised for 90 s at 9,500 rpm using a VDI 25 (VWR, USA) homogeniser. The cells were then lysed using a Microfluidiser processor M-110L Pneumatic (Microfluidics, USA) at 60 PSI and membranes collected by ultracentrifugation at 204.7 k×g for 1 h. The supernatant was discarded and the pellet was resuspended and homogenised in 90 s at 9,500 rpm in 50 mL (25 mL for each 2 L culture) of buffer containing 50 mM Hepes pH 7.5, 150 mM NaCl, 3 Roche EDTA-free protease inhibitor cocktail tablets and 1 mM PMSF. The resulting membranes were then stored at −80° C.
(§4) [^3H]-radioligand binding assay. After thawing, membrane homogenates were re-suspended in the binding buffer (8.5 mM HEPES, pH 7.4, 1.3 mM CaCl2, 1.2 mM MgSO4, 118 mM NaCl, 4.7 mM KCl, 4 mM NaHCO3, 1.2 mM KH2PO4, 11 mM glucose) to a final assay concentration of 6.4 μg (OX1) or 1.4 μg (OX2) protein per well. Saturation isotherms were determined by the addition of various concentrations (0-30 nM) of [^3H]-4-(2,6-difluoro-4-methoxybenzyl)-2-(5,6-dimethoxypyridin-3-yl)-2H-1,2,4-benzothiadiazin-3(4H)-one 1,1-dioxide (Christopher et al, MedChemComm., 2015, 6, 947-955) in a total reaction volume of 250 μL for 90 min at rt. At the end of the incubation, membranes were filtered onto a 96-well GF/B filter pre-incubated with 0.5% polyethylenimine, with a Tomtec cell harvester and washed 5 times with 0.5 mL distilled water. Non-specific binding (NSB) was measured in the presence of 3.33 μM [4-(5-chloro-1,3-benzoxazol-2-yl)-7-methyl-1,4-diazepan-1-yl][5-methyl-2-(2H-1,2,3-triazol-2-yl)phenyl]methanone (Wertz et al, Angew. Chem. Int. Ed., 2011, 50, 11511-11515). Radioactivity on the filter was counted (1 min) on a Microbeta radiometric plate counter (Perkin Elmer) after addition of 50 μL of scintillation fluid (LabLogic: Part #SG-BXX-14). […] IC50 values were derived from the inhibition curve and the equilibrium dissociation constant (Ki) values were calculated using the Cheng-Prusoff equation.
Assay [4] concerns the target T2, Human OX2 receptor. Description: [3H]-radioligand binding assay, human OX2 receptor membranes.
Description: as §3, §4

The Ki is a dissociation constant, usually derived from enzyme kinetics or from competition with a known ligand. Lower therefore signals a stronger hold on the target. Regarding `O=C(N[C@H]1CCC[C@@H]1COc1ccc(F)cc1)c1c(OC(F)F)cccc1-c1ncccn1` [Example 15, 2-(difluoromethoxy)-N-[(1S,2S)-2-[(4-fluorophenoxy)methyl]cyclopentyl]-6-pyrimidin-2-yl-benzamide], the figures for the Kb on Human OX1 receptor [1] and on Human OX2 receptor [2] were 158 nM and greater than 2510 nM, respectively. Also, the Ki on Human OX1 receptor [3] was 12.6 nM; at Human OX2 receptor [4] it was greater than 1260 nM.

Regarding `COc1ccc(F)c(-n2nccn2)c1C(=O)N[C@H]1CCC[C@@H]1COc1ccc(F)cc1` [Example 16, 3-fluoro-N-[(1S,2S)-2-[(4-fluorophenoxy)methyl]cyclopentyl]-6-methoxy-2-(triazol-2-yl)benzamide], the Kb was 20 nM on Human OX1 receptor [1] and greater than 631 nM at Human OX2 receptor [2]. In addition, the Ki at Human OX1 receptor [3] was 12.6 nM; on Human OX2 receptor [4] it was 1580 nM.

In the case of `COCc1cccc(-n2nccn2)c1C(=O)N[C@H]1CCC[C@@H]1COc1ccc(F)cc1` [Example 17, N-[(1S,2S)-2-[(4-fluorophenoxy)methyl]cyclopentyl]-2-(methoxymethyl)-6-(triazol-2-yl)benzamide], the Kb at Human OX1 receptor [1] was 251 nM; at Human OX2 receptor [2], greater than 631 nM. The Ki at Human OX1 receptor [3] is 31.6 nM; on Human OX2 receptor [4], greater than 1260 nM.

`COCc1ccc(-n2nccn2)c(C(=O)N[C@H]2CCC[C@@H]2COc2ccc(F)cc2)n1` [Example 18, N-[(1S,2S)-2-[(4-fluorophenoxy)methyl]cyclopentyl]-6-(methoxymethyl)-3-(triazol-2-yl)pyridine-2-carboxamide]: the Kb at Human OX1 receptor [1] was 63.1 nM; on Human OX2 receptor [2] it was greater than 1260 nM. The inhibition constant (Ki) is 7.94 nM on Human OX1 receptor [3] and greater than 5010 nM at Human OX2 receptor [4].

Turning to `COCc1ccc(-n2nccn2)c(C(=O)N[C@H]2CCC[C@@H]2COc2ccc(Cl)cc2)n1` [Example 19, N-[(1S,2S)-2-[(4-chlorophenoxy)methyl]cyclopentyl]-6-(methoxymethyl)-3-(triazol-2-yl)pyridine-2-carboxamide], the Kb is 79.4 nM on Human OX1 receptor [1] and greater than 1260 nM at Human OX2 receptor [2]. The inhibition constant Ki is 7.94 nM on Human OX1 receptor [3] and greater than 5010 nM on Human OX2 receptor [4].

Take `COc1ccc(-n2nccn2)c(C(=O)N[C@H]2CCC[C@@H]2COc2ccc(F)cc2)n1` [Example 20, N-[(1S,2S)-2-[(4-fluorophenoxy)methyl]cyclopentyl]-6-methoxy-3-(triazol-2-yl)pyridine-2-carboxamide]: the Kb at Human OX1 receptor [1] was 100 nM; on Human OX2 receptor [2], greater than 1260 nM. The Ki at Human OX1 receptor [3] is 7.94 nM; at Human OX2 receptor [4] it was greater than 5010 nM.

For the molecule `COc1ccc(-n2nccn2)c(C(=O)N[C@H]2CCC[C@@H]2COc2ccc(Cl)cc2)n1` [Example 21, N-[(1S,2S)-2-[(4-chlorophenoxy)methyl]cyclopentyl]-6-methoxy-3-(triazol-2-yl)pyridine-2-carboxamide], the Kb at Human OX1 receptor [1] is 794 nM; at Human OX2 receptor [2] it was greater than 631 nM. The Ki was 12.6 nM at Human OX1 receptor [3] and greater than 5010 nM at Human OX2 receptor [4].

In the case of `Cc1ccc(-n2nccn2)c(C(=O)N[C@H]2CCC[C@@H]2COc2ccc(F)cc2)n1` [Example 22, N-[(1S,2S)-2-[(4-fluorophenoxy)methyl]cyclopentyl]-6-methyl-3-(triazol-2-yl)pyridine-2-carboxamide], the figures for the Kb at Human OX1 receptor [1] and at Human OX2 receptor [2] were 25.1 nM and greater than 1260 nM, respectively. The Ki on Human OX1 receptor [3] was 3.98 nM; at Human OX2 receptor [4], greater than 3160 nM.

As for `Cc1ccc(-n2nccn2)c(C(=O)N[C@H]2CCC[C@@H]2COc2ccc(Cl)cc2)n1` [Example 23, N-[(1S,2S)-2-[(4-chlorophenoxy)methyl]cyclopentyl]-6-methyl-3-(triazol-2-yl)pyridine-2-carboxamide], the results for the Kb on Human OX1 receptor [1] and on Human OX2 receptor [2] were 39.8 nM and greater than 1260 nM, respectively. The inhibitory constant (Ki) at Human OX1 receptor [3] was 1.26 nM; on Human OX2 receptor [4] it was greater than 3980 nM.

Take `Cc1ccc(-c2ncccn2)c(C(=O)N[C@H]2CCC[C@@H]2COc2ccc(F)cc2)n1` [Example 24, N-[(1S,2S)-2-[(4-fluorophenoxy)methyl]cyclopentyl]-6-methyl-3-pyrimidin-2-yl-pyridine-2-carboxamide]: the Kb at Human OX1 receptor [1] was 15.8 nM; at Human OX2 receptor [2], greater than 631 nM. Moreover, the Ki at Human OX1 receptor [3] was 15.8 nM; on Human OX2 receptor [4], greater than 3980 nM.

For `O=C(N[C@H]1CCC[C@@H]1COc1ccc(F)cc1)c1ncccc1-c1ncccn1` [Example 25, N-[(1S,2S)-2-[(4-fluorophenoxy)methyl]cyclopentyl]-3-pyrimidin-2-yl-pyridine-2-carboxamide], the Kb on Human OX1 receptor [1] is 79.4 nM; on Human OX2 receptor [2], greater than 631 nM. The Ki at Human OX1 receptor [3] is 7.94 nM; on Human OX2 receptor [4], greater than 3160 nM.

On to `O=C(N[C@H]1CCC[C@@H]1COc1ccc(F)cc1F)c1ncccc1-c1ncccn1` [Example 26, N-[(1S,2S)-2-[(2,4-difluorophenoxy)methyl]cyclopentyl]-3-pyrimidin-2-yl-pyridine-2-carboxamide], for which the Kb at Human OX1 receptor [1] was 251 nM; at Human OX2 receptor [2], greater than 794 nM. Besides, the Ki at Human OX1 receptor [3] was 12.6 nM; at Human OX2 receptor [4], greater than 3160 nM.

With `O=C(N[C@H]1CCC[C@@H]1COc1ccc(Cl)cc1)c1ncccc1-c1ncccn1` [Example 27, N-[(1S,2S)-2-[(4-chlorophenoxy)methyl]cyclopentyl]-3-pyrimidin-2-yl-pyridine-2-carboxamide], the Kb was 316 nM on Human OX1 receptor [1] and greater than 2510 nM at Human OX2 receptor [2]. Moreover, the inhibition constant (Ki) on Human OX1 receptor [3] was 20 nM; on Human OX2 receptor [4] it was greater than 5010 nM.

Take `O=C(N[C@H]1CCC[C@@H]1COc1ccc(F)c(F)c1)c1ncccc1-c1ncccn1` [Example 28, N-[(1S,2S)-2-[(3,4-difluorophenoxy)methyl]cyclopentyl]-3-pyrimidin-2-yl-pyridine-2-carboxamide]: the Kb at Human OX1 receptor [1] was 100 nM; on Human OX2 receptor [2], greater than 2510 nM. The Ki at Human OX1 receptor [3] was 25.1 nM; on Human OX2 receptor [4], greater than 1260 nM.

As to `COc1nccc(-n2nccn2)c1C(=O)N[C@H]1CCC[C@@H]1COc1ccc(F)cc1` [Example 29, N-[(1S,2S)-2-[(4-fluorophenoxy)methyl]cyclopentyl]-2-methoxy-4-(triazol-2-yl)pyridine-3-carboxamide], the Kb at Human OX1 receptor [1] was 39.8 nM; on Human OX2 receptor [2], greater than 631 nM. Also, the inhibitory constant (Ki) on Human OX1 receptor [3] was 6.31 nM; at Human OX2 receptor [4], 794 nM.

`COc1nccc(-c2ncccn2)c1C(=O)N[C@H]1CCC[C@@H]1COc1ccc(F)cc1` [Example 30, N-[(1S,2S)-2-[(4-fluorophenoxy)methyl]cyclopentyl]-2-methoxy-4-pyrimidin-2-yl-pyridine-3-carboxamide]: the Kb is 25.1 nM at Human OX1 receptor [1] and greater than 631 nM at Human OX2 receptor [2]. In addition, the Ki on Human OX1 receptor [3] is 7.94 nM; on Human OX2 receptor [4] it was greater than 1260 nM.

The record behind these values is patent publication US12331029B2, “Orexin 1 receptor antagonists” (NXERA PHARMA UK LIMITED, priority 2018, dated 2025).
